In patent US12473282B2, “Biphenyl fluorine double bond derivative, preparation method therefor, and pharmaceutical application thereof” (Abbisko Therapeutics Co., Ltd., priority 2020, dated 2025):

Key:
[1] = target: interaction between PD-1 and PD-L1 (Homo sapiens (Human), UniProt Q9NZQ7); test: PD1-PDL1 HTRF binding activity test (Cisbio PD-1/PD-L1 binding assay kit)
Method: I. PD1-PDL1 HTRF Binding Activity Test
The effect of compounds of the examples of the present invention on the interaction between PD-1 and PD-L1 was determined by the PD-1/PD-L1 binding assay kit from Cisbio (#64ICP01PEG or 64ICP01PEH). The detailed experimental process was as follows: • 1. Pre-diluted compound solution, 4 μL of Tag1-PD-L1 and 4 μL of Tag2-PD1 were added to each well of a 384-well plate; • 2. After the mixture was incubated at room temperature for 15 min, 5 μL of anti-Tag1-Eu3+ antibody and 5 μL of anti-Tag2-XL665 antibody were then added; • 3. After incubated for 2 hrs at room temperature or overnight at 4° C., plates were read on Envision of Pelkin Elmer; and readings at 665 nm and 620 nm were recorded, and the ratio of the two readings was taken as a reading for each well; • 4. The reading of each well after compound treatment was compared with the reading of DMSO treated wells to obtain the percent inhibition of the compound; • 5. IC50 values of compounds and positive compounds of the examples of the present invention were determined by non-linear regression analysis of percent inhibition at different compound concentrations. II. Jurkat Reporter Gene Cellular Assay

[2] = Jurkat reporter gene cellular assay; type: cell-based; conditions: Homo sapiens; Jurkat/NF-κB-luc/PD1 + Raji-PD-L1 coculture, OKT3 1 μg/mL, 6 hrs, activation fold; read-out: Cell Activity EC50
Outline: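 Jurkat cells stably expressing human PD-1 and NF-κB-luciferase co-cultured with PD-L1-expressing Raji cells (5×10^4 each/well) under OKT3 (1 μg/mL final) with compound. Raji cells preincubated 20 min; luminescence read 6 h after Jurkat addition. EC50 from non-linear regression of fold activation over DMSO.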

Sequence of interaction between PD-1 and PD-L1 (Q9NZQ7 19-238): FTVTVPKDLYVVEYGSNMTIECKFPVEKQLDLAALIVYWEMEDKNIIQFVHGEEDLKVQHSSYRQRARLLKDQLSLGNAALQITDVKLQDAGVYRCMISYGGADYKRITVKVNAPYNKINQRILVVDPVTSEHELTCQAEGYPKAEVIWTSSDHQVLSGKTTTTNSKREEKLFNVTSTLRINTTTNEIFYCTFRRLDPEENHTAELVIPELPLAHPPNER

Row | Structure (SMILES) | IC50 [1] | EC50 [2]
1 | CC(C)N1CCc2c(nc(/C(F)=C/c3cccc(-c4cccc(NC(=O)c5nc6c(n5C)CCN(CCC57CCC(C(=O)O)(CC5)C7)C6)c4Cl)c3Cl)n2C)C1 [Example 8, (Z)-4-(2-(2-((2,2′-dichloro-3′-(2-fluoro-2-(5-isopropyl-1-methyl-4,5,6,7-tetrahydro-1H-imidazo[4,5-c]pyridin-2-yl)vinyl)-[1,1′-biphenyl]-3-yl)carbamoyl)-1-methyl-1,4,6,7-tetrahydro-5H-imidazo[4,5-c]pyridin-5-yl)ethyl)bicyclo[2.2.1]heptane-1-carboxylic acid] | 0.516 nM | 97.5 nM
2 | COc1cc(/C(F)=C/c2cccc(-c3cccc(NC(=O)c4nc5c(n4C)CCN(CCC46CCC(C(=O)O)(CC4)C6)C5)c3Cl)c2Cl)ncc1CNCCO [Example 16, (Z)-4-(2-(2-((2,2′-dichloro-3′-(2-fluoro-2-(5-(((2-hydroxyethyl)amino)methyl)-4-methoxypyridin-2-yl)vinyl)-[1,1′-biphenyl]-3-yl)carbamoyl)-1-methyl-1,4,6,7-tetrahydro-5H-imidazo[4,5-c]pyridin-5-yl)ethyl)bicyclo[2.2.1]heptane-1-carboxylic acid] | 0.191 nM | 133 nM
3 | COc1cc(/C(F)=C/c2cccc(-c3cccc(NC(=O)c4nc5c(n4C)CCN(C[C@H]4CC[C@H](C(=O)O)CC4)C5)c3C)c2C)ncc1CNC[C@@H]1CCC(=O)N1 [Example 17, (1R,4R)-4-((2-((3′-((Z)-2-fluoro-2-(4-methoxy-5-(((((S)-5-oxopyrrolidin-2-yl)methyl)amino)methyl)pyridin-2-yl)vinyl)-2,2′-dimethyl-[1,1′-biphenyl]-3-yl)carbamoyl)-1-methyl-1,4,6,7-tetrahydro-5H-imidazo[4,5-c]pyridin-5-yl)methyl)cyclohexane-1-carboxylic acid] | 0.331 nM | 464 nM
4 | Cn1c(C(=O)Nc2cccc(-c3cccc(/C=C(\F)c4cc(C5CC5)c(CN5CC(C)(O)C5)cn4)c3Cl)c2Cl)nc2c1CCN(CCC13CCC(C(=O)O)(CC1)C3)C2 [Example 36, (Z)-4-(2-(2-((2,2′-dichloro-3′-(2-(4-cyclopropyl-5-((3-hydroxy-3-methylazetidin-1-yl)methyl)pyridin-2-yl)-2-fluorovinyl)-[1,1′-biphenyl]-3-yl)carbamoyl)-1-methyl-1,4,6,7-tetrahydro-5H-imidazo[4,5-c]pyridin-5-yl)ethyl)bicyclo[2.2.1]heptane-1-carboxylic acid] | 0.306 nM | 3130 nM
5 | COc1cc(/C(F)=C/c2cccc(-c3cccc(NC(=O)c4nc5c(n4C)CCN(CCC46CCC(C(=O)O)(CC4)C6)C5)c3Cl)c2Cl)ncc1CN[C@H](CO)C(=O)O [Example 37, (R,Z)-4-(2-(2-((3′-(2-(5-(((1-carboxy-2-hydroxyethyl)amino)methyl)-4-methoxypyridin-2-yl)-2-fluorovinyl)-2,2′-dichloro-[1,1′-biphenyl]-3-yl)carbamoyl)-1-methyl-1,4,6,7-tetrahydro-5H-imidazo[4,5-c]pyridin-5-yl)ethyl)bicyclo[2.2.1]heptane-1-carboxylic acid] | 0.202 nM | 178 nM
6 | COc1cc(/C(F)=C/c2cccc(-c3cccc(NC(=O)c4nc5c(n4C)CCN(CCC46CCC(C(=O)O)(CC4)C6)C5)c3Cl)c2Cl)ncc1CNCC(F)F [Example 38, (Z)-4-(2-(2-((2,2′-dichloro-3′-(2-(5-(((2,2-difluoroethyl)amino)methyl)-4-methoxypyridin-2-yl)-2-fluorovinyl)-[1,1′-biphenyl]-3-yl)carbamoyl)-1-methyl-1,4,6,7-tetrahydro-5H-imidazo[4,5-c]pyridin-5-yl)ethyl)bicyclo[2.2.1]heptane-1-carboxylic acid] | 0.332 nM | 977 nM
7 | COc1cc(/C(F)=C/c2cccc(-c3cccc(NC(=O)c4nc5c(n4C)CCN(CCC46CCC(C(=O)O)(CC4)C6)C5)c3Cl)c2Cl)ncc1CN[C@H]1CC[C@@H](O)CC1 [Example 40, 4-(2-(2-((2,2′-dichloro-3′-((Z)-2-fluoro-2-(5-((((1S,4S)-4-hydroxycyclohexyl)amino)methyl)-4-methoxypyridin-2-yl)vinyl)-[1,1′-biphenyl]-3-yl)carbamoyl)-1-methyl-1,4,6,7-tetrahydro-5H-imidazo[4,5-c]pyridin-5-yl)ethyl)bicyclo[2.2.1]heptane-1-carboxylic acid] | 0.31 nM | 179 nM

The next compounds have a lower EC50 [2] than those just listed; values first:

Row | IC50 [1] | EC50 [2] | Structure (SMILES)
8 | 0.419 nM | 62.2 nM | C[C@@H](O)CN1CCc2c(nc(/C(F)=C/c3cccc(-c4cccc(NC(=O)c5nc6c(n5C)CCN(CCC57CCC(C(=O)O)(CC5)C7)C6)c4Cl)c3Cl)n2C)C1 [Example 7, (R,Z)-4-(2-(2-((2,2′-dichloro-3′-(2-fluoro-2-(5-(2-hydroxypropyl)-1-methyl-4,5,6,7-tetrahydro-1H-imidazo[4,5-c]pyridin-2-yl)vinyl)-[1,1′-biphenyl]-3-yl)carbamoyl)-1-methyl-1,4,6,7-tetrahydro-5H-imidazo[4,5-c]pyridin-5-yl)ethyl)bicyclo[2.2.1]heptane-1-carboxylic acid]
9 | 0.489 nM | 85.8 nM | COc1cc(/C(F)=C/c2cccc(-c3cccc(NC(=O)c4nc5c(n4C)CCN(CCC46CCC(C(=O)O)(CC4)C6)C5)c3Cl)c2Cl)ncc1CN1CC(C)(O)C1 [Example 33, (Z)-4-(2-(2-((2,2′-dichloro-3′-(2-fluoro-2-(5-((3-hydroxy-3-methylazetidin-1-yl)methyl)-4-methoxypyridin-2-yl)vinyl)-[1,1′-biphenyl]-3-yl)carbamoyl)-1-methyl-1,4,6,7-tetrahydro-5H-imidazo[4,5-c]pyridin-5-yl)ethyl)bicyclo[2.2.1]heptane-1-carboxylic acid]
10 | 0.352 nM | 80.4 nM | COc1cc(/C(F)=C/c2cccc(-c3cccc(NC(=O)c4nc5c(n4C)CCN(CCC46CCC(C(=O)O)(CC4)C6)C5)c3Cl)c2Cl)ncc1CNC[C@@H]1CCC(=O)N1 [Example 34, (S,Z)-4-(2-(2-((2,2′-dichloro-3′-(2-fluoro-2-(4-methoxy-5-((((5-oxopyrrolidin-2-yl)methyl)amino)methyl)pyridin-2-yl)vinyl)-[1,1′-biphenyl]-3-yl)carbamoyl)-1-methyl-1,4,6,7-tetrahydro-5H-imidazo [4,5-c]pyridin-5-yl)ethyl)bicyclo[2.2.1]heptane-1-carboxylic acid]
11 | 0.638 nM | 93.1 nM | COc1cc(/C(F)=C/c2cccc(-c3cccc(NC(=O)c4nc5c(n4C)CCN(CCC46CCC(C(=O)O)(CC4)C6)C5)c3Cl)c2Cl)ncc1CN[C@@H]1CCOC[C@H]1O [Example 35, 4-(2-(2-((2,2′-dichloro-3′-((Z)-2-fluoro-2-(5-((((3S,4R)-3-hydroxytetrahydro-2H-pyran-4-yl)amino)methyl)-4-methoxypyridin-2-yl)vinyl)-[1,1′-biphenyl]-3-yl)carbamoyl)-1-methyl-1,4,6,7-tetrahydro-5H-imidazo[4,5-c]pyridin-5-yl)ethyl)bicyclo[2.2.1]heptane-1-carboxylic acid]
12 | 0.238 nM | 64.7 nM | COc1cc(/C(F)=C/c2cccc(-c3cccc(NC(=O)c4nc5c(n4C)CCN(CCC46CCC(C(=O)O)(CC4)C6)C5)c3Cl)c2Cl)ncc1CN1CC[C@@H](O)C1 [Example 39, (R,Z)-4-(2-(2-((2,2′-dichloro-3′-(2-fluoro-2-(5-((3-hydroxypyrrolidin-1-yl)methyl)-4-methoxypyridin-2-yl)vinyl)-[1,1′-biphenyl]-3-yl)carbamoyl)-1-methyl-1,4,6,7-tetrahydro-5H-imidazo[4,5-c]pyridin-5-yl)ethyl)bicyclo[2.2.1]heptane-1-carboxylic acid]
13 |  | 54.4 nM | COc1cc(/C(F)=C/c2cccc(-c3cccc(NC(=O)c4nc5c(n4C)CCN(CCC46CCC(C(=O)O)(CC4)C6)C5)c3Cl)c2Cl)ncc1CN1CC2CCC1C2 (centres unmarked) [Example 77, (Z)-4-(2-(2-((3′-(2-(5-((2-azabicyclo[2.2.1]heptan-2-yl)methyl)-4-methoxypyridin-2-yl)-2-fluorovinyl)-2,2′-dichloro-[1,1′-biphenyl]-3-yl)carbamoyl)-1-methyl-1,4,6,7-tetrahydro-5H-imidazo[4,5-c]pyridin-5-yl)ethyl)bicyclo[2.2.1]heptane-1-carboxylic acid]
14 |  | 56.5 nM | COc1cc(/C(F)=C/c2cccc(-c3cccc(NC(=O)c4nc5c(n4C)CCN(CCC46CCC(C(=O)O)(CC4)C6)C5)c3Cl)c2Cl)ncc1CN1CC[C@H](C)C1 [Example 78, (S,Z)-4-(2-(2-((2,2′-dichloro-3′-(2-fluoro-2-(4-methoxy-5-((3-methylpyrrolidin-1-yl)methyl)pyridin-2-yl)vinyl)-[1,1′-biphenyl]-3-yl)carbamoyl)-1-methyl-1,4,6,7-tetrahydro-5H-imidazo[4,5-c]pyridin-5-yl)ethyl)bicyclo[2.2.1]heptane-1-carboxylie acid]
